Target: T1, sGC α1/β1 heterodimer stably expressed in CHO-K1 cells (CHO-K1/sGC) (Homo sapiens, UniProt Q02108+Q02153)
T1 construct: expressed in transfected cells
T1 sequence (Q02108 1-690): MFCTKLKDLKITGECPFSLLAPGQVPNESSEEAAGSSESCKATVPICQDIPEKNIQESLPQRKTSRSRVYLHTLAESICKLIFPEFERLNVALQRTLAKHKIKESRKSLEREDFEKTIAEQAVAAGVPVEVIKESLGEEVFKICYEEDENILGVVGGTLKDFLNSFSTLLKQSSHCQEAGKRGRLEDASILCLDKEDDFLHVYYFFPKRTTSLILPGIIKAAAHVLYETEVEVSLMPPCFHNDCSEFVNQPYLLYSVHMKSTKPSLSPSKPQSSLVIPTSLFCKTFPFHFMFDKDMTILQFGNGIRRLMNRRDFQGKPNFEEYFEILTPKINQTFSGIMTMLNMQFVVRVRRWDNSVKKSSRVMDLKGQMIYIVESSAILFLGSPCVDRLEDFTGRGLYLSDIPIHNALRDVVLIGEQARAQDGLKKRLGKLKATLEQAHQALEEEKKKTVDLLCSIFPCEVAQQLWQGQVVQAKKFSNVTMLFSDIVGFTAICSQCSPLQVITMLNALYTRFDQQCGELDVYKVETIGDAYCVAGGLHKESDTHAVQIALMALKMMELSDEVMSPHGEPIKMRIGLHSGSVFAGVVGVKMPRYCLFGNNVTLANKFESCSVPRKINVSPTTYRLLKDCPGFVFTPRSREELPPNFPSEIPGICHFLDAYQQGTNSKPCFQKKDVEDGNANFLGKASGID
T1 sequence (Q02153 1-619): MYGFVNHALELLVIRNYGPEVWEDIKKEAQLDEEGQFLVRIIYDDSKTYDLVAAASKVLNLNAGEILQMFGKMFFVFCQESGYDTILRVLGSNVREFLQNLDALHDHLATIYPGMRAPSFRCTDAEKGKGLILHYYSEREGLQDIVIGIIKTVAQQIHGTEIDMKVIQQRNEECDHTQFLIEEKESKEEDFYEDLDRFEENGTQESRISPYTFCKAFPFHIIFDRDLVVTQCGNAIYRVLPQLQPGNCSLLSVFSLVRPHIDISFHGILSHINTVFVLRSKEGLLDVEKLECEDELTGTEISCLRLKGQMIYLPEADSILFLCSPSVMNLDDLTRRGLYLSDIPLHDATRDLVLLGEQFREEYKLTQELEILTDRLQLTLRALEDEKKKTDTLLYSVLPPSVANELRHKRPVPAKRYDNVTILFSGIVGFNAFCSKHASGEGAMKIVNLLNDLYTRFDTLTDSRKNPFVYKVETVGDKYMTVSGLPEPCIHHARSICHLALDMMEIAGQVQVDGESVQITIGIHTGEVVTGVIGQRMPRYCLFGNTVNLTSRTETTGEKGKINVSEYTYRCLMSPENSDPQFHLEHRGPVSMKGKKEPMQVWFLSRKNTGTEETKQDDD
Assay: Cell-based sGC functional assay (CASA assay), cGMP generation by HTRF
Conditions: for Emax: CHO-K1, maximum cGMP production of Compound A set to 100% activation, read-out: % Act. (percent activation relative to Compound A); for EC50: CHO-K1/sGC cells, 1 hr at 37° C., 4P fit, presence or absence of DETA-NO not given, read-out: IP (nM) (inflection point)
Method in brief: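 CHO-K1/sGC cells (4×10^5/mL) in EBSS with 5 mM MgCl2, 10 mM HEPES, 0.05% BSA and 0.5 mM IBMX, treated 1 hr at 37° C with compounds (2.5% DMSO) with or without 1 μM DETA-NO. cGMP measured by HTRF, expressed as % of a reference heme-dependent activator's maximum; inflection point and fold induction from 4P fit.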

Compound | Emax | EC50 | % Act. (percent activation relative to Compound A) (maximum cGMP production of Compound A set to 100% activation)
CC1(c2ccc(F)cc2)C(=O)Nc2nc(-c3cn4ccnc4c(Oc4ccc(F)c(F)c4F)n3)nc(N)c21 (centres unmarked) [Example 16A, 4-amino-5-(4-fluorophenyl)-5-methyl-2-[8-(2,3,4-trifluorophenoxy)imidazo[1,2-a]pyrazin-6-yl]-5,7-dihydro-6H-pyrrolo [2,3-d]pyrimidin-6-one] | 89% | 37 nM | 
CC1(c2ccccc2)C(=O)Nc2nc(-c3cn4ccnc4c(Oc4cccc(F)c4)n3)nc(N)c21 (centres unmarked) [Example 8B, 4-amino-2-[8-(3-fluorophenoxy)imidazo[1,2-a]pyrazin-6-yl]-5-methyl-5-phenyl-5,7-dihydro-6H-pyrrolo[2,3-d] pyrimidin-6-one] | 110% | 22 nM | 
CC1(c2ccccc2)C(=O)Nc2nc(-c3cn4ccnc4c(Oc4ccccc4F)n3)nc(N)c21 (centres unmarked) [Example 5B, 4-amino-2-[8-(2-fluorophenoxy)imidazo[1,2-a]pyrazin-6-yl]-5-methyl-5-phenyl-5,7-dihydro-6H-pyrrolo[2,3-d] pyrimidin-6-one] | 107% | 80 nM | 
CC1(c2ccc(F)cn2)C(=O)Nc2nc(-c3cn4ccnc4c(OCC4CC(F)(F)C4)n3)nc(N)c21 (centres unmarked) [Example 33B, 4-amino-2-{8-[(3,3-difluoro-cyclobutyl)methoxy]imidazo [1,2-a]pyrazin-6-yl}-5-(5-fluoro-pyridin-2-yl)-5-methyl-5,7-dihydro-6H-pyrrolo[2,3-d] pyrimidin-6-one] | 112% | 1040 nM | 

Further lines, results first:

Emax | EC50 | % Act. (percent activation relative to Compound A) (maximum cGMP production of Compound A set to 100% activation) | Compound
106% | 26 nM |  | CC1(c2ccc(Cl)cc2)C(=O)Nc2nc(-c3cn4ccnc4c(OCc4ccccc4)n3)nc(N)c21 (centres unmarked) [Example 48A, 4-amino-2-[8-(benzyloxy)imidazo[1,2-a]pyrazin-6-yl]-5-(4-chlorophenyl)-5-methyl-5,7-dihydro-6H-pyrrolo[2,3-d] pyrimidin-6-one]
116% | 17 nM |  | CC1(c2ccc(F)cc2)C(=O)Nc2nc(-c3cn4ccnc4c(OCC4CCCCC4)n3)nc(N)c21 (centres unmarked) [Example 43A, 4-amino-2-[8-(cyclohexyl-methoxy)imidazo [1,2-a]pyrazin-6-yl]-5-(4-fluorophenyl)-5-methyl-5,7-dihydro-6H-pyrrolo[2,3-d] pyrimidin-6-one]
96% | 175 nM |  | CC1(c2ccc(Cl)cc2)C(=O)Nc2nc(-c3cn4ccnc4c(NCC4CCCCO4)n3)nc(N)c21 (single isomer, unassigned; fast eluting) [Example 71A, 4-amino-5-(4-chlorophenyl)-5-methyl-2-{8-[(tetrahydro-2H-pyran-2-ylmethyl)amino]imidazo [1,2-a]pyrazin-6-yl}-5,7-dihydro-6H-pyrrolo[2,3-d] pyrimidin-6-one (fast eluting)]
 | 1710 nM | 115% | CC1(c2ccc(Cl)cc2)C(=O)Nc2nc(-c3cn4ccnc4c(OCC4CCCOC4)n3)nc(N)c21 (single isomer, unassigned; fast eluting) [Example 66A, 4-amino-5-(4-chlorophenyl)-5-methyl-2-[8-(tetrahydro-2H-pyran-3-ylmethoxy)imidazo[1,2-a]pyrazin-6-yl]-5,7-dihydro-6H-pyrrolo [2,3-d] pyrimidin-6-one (fast eluting)]
129% | 1470 nM |  | CC1(c2ccc(F)cc2)C(=O)Nc2nc(-c3cn4cc(C(F)(F)F)nc4c(Oc4ccccc4)n3)nc(N)c21 (centres unmarked) [Example 36A, 4-amino-5-(4-fluorophenyl)-5-methyl-2-(8-phenoxy-2-(trifluoromethyl)imidazo[1,2-a]pyrazin-6-yl)-5H-pyrrolo[2,3-d] pyrimidin-6(7H)-one]
110% | 948 nM |  | CC1(c2ccc(F)cc2)C(=O)Nc2nc(-c3cn4ccnc4c(NCC4CC(F)(F)C4)n3)nc(N)c21 (centres unmarked) [Example 53A, 4-amino-2-(8-{[(3,3-difluoro-cyclobutyl)methyl]amino}imidazo[1,2-a]pyrazin-6-yl)-5-(4-fluoro-phenyl)-5-methyl-5,7-dihydro-6H-pyrrolo[2,3-d] pyrimidin-6-one]

Source: patent US10245264B2, “Substituted imidazo[1,2-a]pyrazines as soluble guanylate cyclase activators” (Merck Sharp & Dohme Corp., priority 2015, dated 2019)
